Tests used:
BuChE from equine serum = BuChE from equine serum (Equus caballus, UniProt P81908); assay: biochemical
in vitro = type: cell-based; settings: human, human hepatic stellate cells (HSCs), HSCs, 24 h, read-out: hepatotoxicity (MTT; cell viability as percentage of control)
Experimental: Human hepatic stellate cells (HSCs, Sciencell) were cultured in the Stellate Cell Medium (Sciencell) with 1% Stellate Cell Growth Supplement, 2% fetal bovine serum (FBS), and 1% penicillin/streptomycin solution (Sciencell). Cells were kept in the incubator (37 °C, 5% CO2). At the beginning of the experiment, cells were seeded in the 96-well plates at a density of 5 × 10^3 cells per well and incubated in the incubator for 24 h. After the incubation period, medium was removed and HSCs were exposed to 100 µL of the compound solutions over a range of concentrations (10–0.1 µM) or nothing but culture medium (blank control). Cells were further incubated for 24 h. At the end, medium was removed, cells were washed with PBS, and 50 µL of the MTT solution (0.75 mg/mL) was added to the cells. Plates were kept in the dark for 2 h at 37 °C. Finally, the MTT solution was removed and 100 µL of DMSO was added to each well. Plates with DMSO were kept at room temperature for 10 min. After this time, 5 µL of Sorensen Buffer was added to each well. Plates were swayed and the absorbance was measured at a wavelength of 570 nm by a microplate reader (Synergy H1, BioTek). The cell viability was expressed as a percentage of the control values (blank control).

SH-SY5Y cells [1] = assay: Neuroprotection against oxidative stress induced by H2O2 (MTT); type: cell-based, human; settings: H2O2 100 µM
female mice Balb/c = assay: In vivo acute oral toxicity (OECD 423)
Experimental: (§1) Compound 3c was given orally (by gavage) in fixed doses, 5, 50, 300, or 2000 mg/kg body weight, at each stage of the study. Compound 3c was administered at an initial dose of 300 mg/kg, as its toxicity was unknown. According to the graph from the Organization for Economic Cooperation and Development (OCED) 423 guideline, six test stages might be performed. Three animals (female mice Balb/c) take part in each stage. The number of stages depends on the deaths of mice, which is the final test parameter. Results allowed for the classification of compound 3c into a Globally Harmonized Classification System for Chemical Substances and Mixtures (GHS) category. Moreover, the LD50 cut-off values were determined. The research was carried out on the basis of the agreement of the Local Ethical Committee for animal testing in Łódź No. 56/115 ŁB/2018. Compound 3c was administrated in a first dose of 300 mg/kg of body weight.
(§2) The testing protocol is as follows: After the initial dose of 300 mg/kg body weight, if 2–3 mice die, the compound is given at a lower dose (50 mg/kg). The lowest dose (5 mg/kg) is administrated if 2–3 animals die after the 50 mg/kg dose. If there are no deaths or only one mouse dies after administration of the 300 mg/kg dose, the compound is given again at the same dose (300 mg/kg). If there are no deaths again, the highest dose (2000 mg/kg) is given. After each dose, the mice are observed for 14 days. […]

[2] = In vivo acute oral toxicity (OECD 423); settings: female, Balb/c, mouse, in vivo, mice, read-out: LD50 cut-off values
Experimental: as §1, §2

SH-SY5Y cells [3] = assay: Neuroprotection against rotenone/oligomycin A, co-incubation (MTT); type: cell-based, human; settings: R/O mixture
[4] = target: T1, Amyloid β peptide (1–42) (Aβ42) (Homo sapiens, UniProt P05067); assay: Inhibition of self-induced Aβ42 aggregation (thioflavin-T assay); type: biochemical
T1 construct: Amyloid β peptide (1–42) (Aβ42) was purchased from Sigma Aldrich; purchased Sigma Aldrich
T1 sequence (P05067 672-713 limits assumed): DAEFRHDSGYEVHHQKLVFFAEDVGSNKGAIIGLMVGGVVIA

Sequence of BuChE from equine serum (P81908 whole entry): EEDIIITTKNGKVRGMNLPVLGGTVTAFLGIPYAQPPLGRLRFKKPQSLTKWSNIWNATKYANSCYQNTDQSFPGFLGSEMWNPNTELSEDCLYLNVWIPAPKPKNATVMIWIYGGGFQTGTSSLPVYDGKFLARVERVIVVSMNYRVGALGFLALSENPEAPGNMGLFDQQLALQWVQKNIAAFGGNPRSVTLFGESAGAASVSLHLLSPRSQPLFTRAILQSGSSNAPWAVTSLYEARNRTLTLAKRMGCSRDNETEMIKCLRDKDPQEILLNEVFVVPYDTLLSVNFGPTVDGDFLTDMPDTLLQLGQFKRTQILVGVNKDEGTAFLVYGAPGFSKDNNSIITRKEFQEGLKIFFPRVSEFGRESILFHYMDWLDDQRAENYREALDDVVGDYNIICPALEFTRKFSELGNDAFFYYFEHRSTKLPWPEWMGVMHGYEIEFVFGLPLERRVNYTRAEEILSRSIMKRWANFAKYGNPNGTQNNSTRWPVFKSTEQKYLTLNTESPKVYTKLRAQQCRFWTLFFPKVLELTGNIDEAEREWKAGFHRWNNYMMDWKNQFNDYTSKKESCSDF

O=C(NCCCCNc1c2c(nc3ccccc13)CCCC2)c1cc(Cl)cc(Cl)c1 [Compound 3c]
Selectivity for BuChE (BuChE from equine serum; IC50(AChE)/IC50(BuChE)): 0.206 | IC50 (BuChE from equine serum; means ± SD of three independent experiments, read-out: EqBuChE IC50 ± SD): 123 ± 11 nM | viability at 24 h, 0.1 µM (in vitro; 0.1 µM): 99.9% | viability at 24 h, 1 µM (in vitro; 1 µM): 95.4% | viability at 24 h, 10 µM (in vitro; 10 µM): 87.4% | neuroprotection (SH-SY5Y cells [1]; compound 0.01 µM): 46.17% | neuroprotection (SH-SY5Y cells [1]; compound 0.1 µM): 36.48% | neuroprotection (SH-SY5Y cells [1]; compound 1 µM): 0% | neuroprotection (SH-SY5Y cells [1]; compound 10 µM): 0% | GHS (Globally Harmonized System) Category (female mice Balb/c): 4 | deaths (female mice Balb/c; 300 mg/kg, first and second stages): did not cause any deaths | deaths (female mice Balb/c; 2000 mg/kg, first stage): all three mice died | LD50 at 14 days [2]: 500 mg/kg | neuroprotection (SH-SY5Y cells [3]; 0.0001 µM): 29.10% | neuroprotection (SH-SY5Y cells [3]; 0.001 µM): 22.11% | neuroprotection (SH-SY5Y cells [3]; 0.01 µM): 12.90% | neuroprotection (SH-SY5Y cells [3]; 0.1 µM): 10.99% | Inhibition of Aβ aggregation ([4]; 5 µM): 23% | inhibition at 5 µM ([4]; 5 µM, read-out: Inhibition of Aβ aggregation): 23.5% | inhibition at 10 µM ([4]; 10 µM, read-out: Inhibition of Aβ aggregation): 24.3% | inhibition at 25 µM ([4]; 25 µM, read-out: Inhibition of Aβ aggregation): 25.8% | inhibition at 50 µM ([4]; 50 µM, read-out: Inhibition of Aβ aggregation): 26.7% | Inhibition of Aβ aggregation ([4]; 100 µM): 32% | inhibition at 100 µM ([4]; 100 µM, read-out: Inhibition of Aβ aggregation): 31.8% | Inhibition of Aβ42 aggregation ([4]; at all concentrations (5–100 µM)): more than 23%
